Patent US20250059264A1, “METHOD OF TREATING STROKE” (AlaMab Therapeutics, Inc., priority 2023, published 2025)

Legend:
[1] = tested on: mouse model of stroke induced by middle cerebral artery occlusion (MCAO); assay: Brain water content, time of treatment (Example 2); assay type: in vivo, ICR mice; conditions: 48 h after reperfusion
Procedure: (§1) The administration of 10 mg/kg butylphthalide and 50 mg/kg ALMB-0166 was started 30 minutes, 2 hours, or 6 hours after the MCAO procedure of the mice. Ninety-six (96) ICR mice received behavioral training after adaptive feeding period and before the operation to establish stroke models. The behavioral training included beam-walking and rotarod test. The experimental mice were then randomly divided into 8 groups according to the values of the body weight, with 12 mice in each test group as described in Table 1. The mice were fasted overnight before modeling and were anesthetized with isoflurane. Right middle cerebral artery occlusion (MCAO) was induced in mice using the intraluminal filament technique to mimic focal cerebral ischemic stroke. After 1 hr, reperfusion was allowed by removing the occlusion. Administration of each treatment was performed 0.5 hrs, 2 hrs, or 6 hrs after the infarction. The neurological function score was evaluated at 24 hrs and 48 hrs after reperfusion, as was assessed by beam-walking, grip strength, and rotarod tests. At 48 hrs after reperfusion, the whole brain tissue of all rats was harvested to assess the cerebral infarct area by TTC staining, as well as to measure brain volume and brain water content, two indicators of acute cerebral edema.

[2] = tested on: mouse model of stroke induced by middle cerebral artery occlusion (MCAO); assay: Brain volume, time of treatment (Example 2); assay type: in vivo, ICR mice; conditions: 48 h after reperfusion
Procedure: as §1

[3] = tested on: rat model of stroke induced by middle cerebral artery occlusion (MCAO); assay: Beam-walking test (Example 3); assay type: in vivo, SD rats; conditions: 10 mg/kg (table label) i.v. Bid from 30 min after infarction
Procedure: (§2) The administration of the respective treatments was started 30 minutes after the MCAO procedure of the rats.
(§3) Seventy-two (72) SD rats received behavioral training after adaptive feeding period and before the operation to establish stroke models. The behavioral training included beam-walking, grip and rotarod tests. The experimental rats were then randomly divided into 6 groups according to the body weight, with 12 rats in each test group as described in Table 15.
(§4) The rats were fasted overnight before modeling and were anesthetized with isoflurane. Right middle cerebral artery occlusion (MCAO) was induced in each rat using the intraluminal filament technique to mimic focal cerebral ischemic stroke. After 2 hrs, reperfusion was allowed by removing the occlusion.
(§5) Administration of each treatment was performed 0.5 h after the infarction. The rats were scored by the Longa method at 24-hours post-procedure. The neurological function was evaluated at 24-hr and 48-hr after reperfusion, and was assessed by beam-walking, grip strength, and rotarod tests. At 48 h after reperfusion, the whole brain tissue of all rats was harvested to assess the cerebral infarct area by TTC staining, as well as to measure brain volume and brain water content, two indicators of acute cerebral edema.

[4] = tested on: rat model of stroke induced by middle cerebral artery occlusion (MCAO); assay: Grip strength (Example 3); assay type: in vivo, SD rats; conditions: 10 mg/kg (table label) i.v. Bid from 30 min after infarction
Procedure: as §2, §3, §4, §5

[5] = tested on: rat model of stroke induced by middle cerebral artery occlusion (MCAO); assay: Rotarod test (Example 3); assay type: in vivo, SD rats; conditions: 10 mg/kg (table label) i.v. Bid from 30 min after infarction
Procedure: as §2, §3, §4, §5

[6] = tested on: rat model of stroke induced by middle cerebral artery occlusion (MCAO); assay: Cerebral infarct volume by TTC staining (Example 3); assay type: in vivo, SD rats; conditions: 10 mg/kg (table label) i.v. Bid from 30 min after infarction, 48 h after reperfusion
Procedure: as §2, §3, §4, §5

[7] = tested on: rat model of stroke induced by middle cerebral artery occlusion (MCAO); assay: Brain water content (Example 3); assay type: in vivo, SD rats; conditions: 10 mg/kg (table label) i.v. Bid from 30 min after infarction; 48 h after reperfusion
Procedure: as §2, §3, §4, §5

[8] = tested on: rat model of stroke induced by middle cerebral artery occlusion (MCAO); assay: Brain volume (Example 3); assay type: in vivo, SD rats; conditions: 10 mg/kg (table label) i.v. Bid from 30 min after infarction; 48 h after reperfusion
Procedure: as §2, §3, §4, §5

[9] = tested on: rat model of stroke induced by middle cerebral artery occlusion (MCAO); parameters: species or system SD rats; conditions: in vivo
Procedure: (§6) The first administration of the respective treatments was started 30 minutes (Day 1 of study) after the MCAO procedure of the rats. For the butylphthalide group, subsequent doses were administered every day after for 14 days. For the ALMB-0166 test groups, a second dose of the antibody was administered at Day 4 post-stroke (Day 4 of the study). Thirty-six (36) SD rats received behavioral training after adaptive feeding period and before the operation to establish stroke models. The behavioral training included beam-walking, grip and rotarod tests. The experimental rats were then randomly divided into 6 groups according to the body weight, with 6 rats in each test group as described in Table 15. The rats were fasted overnight before modeling and were anesthetized with isoflurane. […] The body weight of rats was recorded before the operation (Day 0 of study) and on Days 2, 4, 7, and 11 after the procedure. The rats were scored by the Longa method at Day 1 (24-hours) post-procedure. The neurological function was evaluated at Days 1, 2, 4, 7, and 14 after the procedure, and was assessed by beam-walking, grip strength, and rotarod tests. […] The total infarct volume was determined, and the infarct volume ratio was calculated by dividing the total infarct volume by the whole brain volume. […]

[10] = tested on: rat model of stroke induced by middle cerebral artery occlusion (MCAO); assay: Beam-walking test, dosing regimen (Example 4); assay type: in vivo, SD rats; conditions: 10 mg/kg (table label) i.v. Bid from 30 min after infarction
Procedure: (§7) The first administration of the respective treatments was started 30 minutes (Day 1 of study) after the MCAO procedure of the rats. For the butylphthalide group, subsequent doses were administered every day after for 14 days. For the ALMB-0166 test groups, a second dose of the antibody was administered at Day 4 post-stroke (Day 4 of the study). Thirty-six (36) SD rats received behavioral training after adaptive feeding period and before the operation to establish stroke models. The behavioral training included beam-walking, grip and rotarod tests. The experimental rats were then randomly divided into 6 groups according to the body weight, with 6 rats in each test group as described in Table 15. The rats were fasted overnight before modeling and were anesthetized with isoflurane. Right middle cerebral artery occlusion (MCAO) was induced in each rat using the intraluminal filament technique to mimic focal cerebral ischemic stroke. After 2 hrs, reperfusion was allowed by removing the occlusion. Administration of butylphthalide was performed 0.5 hrs after the infarction, and every day after the operation (14 days). Administration of ALMB-0166 and the vehicle treatment was performed at 0.5 hrs and at Day 4 after the operation. The body weight of rats was recorded before the operation (Day 0 of study) and on Days 2, 4, 7, and 11 after the procedure. The rats were scored by the Longa method at Day 1 (24-hours) post-procedure. The neurological function was evaluated at Days 1, 2, 4, 7, and 14 after the procedure, and was assessed by beam-walking, grip strength, and rotarod tests. At Day 14 after reperfusion, the whole brain tissue of all rats was harvested to assess the cerebral infarct area by TTC staining. The total infarct volume was determined, and the infarct volume ratio was calculated by dividing the total infarct volume by the whole brain volume. For calculating the infarct volume rate, the difference in infarct volume ratio between the model group and the corresponding administration group was divided by the infarct volume ratio of the model group.

[11] = tested on: rat model of stroke induced by middle cerebral artery occlusion (MCAO); assay: Grip strength, dosing regimen (Example 4); assay type: in vivo, SD rats; conditions: 10 mg/kg (table label) i.v. Bid from 30 min after infarction
Procedure: as §7

[12] = tested on: rat model of stroke induced by middle cerebral artery occlusion (MCAO); assay: Rotarod test, dosing regimen (Example 4); assay type: in vivo, SD rats; conditions: 10 mg/kg (table label) i.v. Bid from 30 min after infarction
Procedure: as §7

[13] = tested on: rat model of stroke induced by middle cerebral artery occlusion (MCAO); assay: Cerebral infarct volume by TTC staining, dosing regimen (Example 4); assay type: in vivo, SD rats; conditions: 10 mg/kg (table label) i.v. Bid from 30 min after infarction, 14-days post-operation
Procedure: as §6

[14] = 10 mg/kg i.v. once 0.5 hr after infarction
[15] = 10 mg/kg i.v. once 2 hr after infarction
[16] = 10 mg/kg i.v. once 6 hr after infarction

**Q.** What does the source list for `CCCCC1OC(=O)c2ccccc21` (stereo not shown) [Butylphthalide]?
**A.** Brain water ratio [1, 14]: 81.23%; Brain water content [1, 15]: 326.33 mg; Brain water ratio [1, 15]: 81.25%; Brain water content [1, 16]: 342.83 mg; Brain water ratio [1, 16]: 82.36%; Brain volume [2, 14]: 0.403 ± 0.04 mL; Brain volume [2, 15]: 0.407 ± 0.02 mL; Brain volume [2, 16]: 0.427 ± 0.03 mL; Beam-walking time ([3]; 24 h): 38.91 s; Beam-walking time ([3]; 48 h): 45.80 s; Grip Strength ([4]; 24 h): 404.73 g; Grip Strength ([4]; 48 h): 419.93 g; Rotarod test score, Time ([5]; 24 h): 69.83 s; Rotarod test score, Time ([5]; 48 h): 86.42 s; Cerebral Infarction Volume [6]: 22.41%; Improvement rate of infarction ([6]; vs model): 30.84%; Brain water content [7]: 1282.00 mg; Brain water ratio [7]: 78.80%; Brain volume [8]: 1.597 ± 0.11 mL; Body weight compared to model test group [9]: No statistically significant difference; Beam-walking time ([10]; Day 0): 23.13 s; Beam-walking time ([10]; Day 2): 28.31 s; Beam-walking time ([10]; Day 4): 43.23 s; Beam-walking time ([10]; Day 7): 35.65 s; Beam-walking time ([10]; Day 14): 16.01 s; Grip Strength ([11]; Day 0): 504.65 g; Grip Strength ([11]; Day 2): 565.99 g; Grip Strength ([11]; Day 4): 520.36 g; Grip Strength ([11]; Day 7): 523.26 g; Grip Strength ([11]; Day 14): 585.23 g; Rotarod test score, Time ([12]; Day 0): 124.5 s; Rotarod test score, Time ([12]; Day 2): 126.8 s; Rotarod test score, Time ([12]; Day 4): 122.2 s; Rotarod test score, Time ([12]; Day 7): 130.7 s; Rotarod test score, Time ([12]; Day 14): 157.3 s; Cerebral Infarction Volume [13]: 15.01%; Improvement rate of infarction ([13]; vs model): 23.64%
